Experimental findings from patent US9376392B2, “2-(tert-butoxy)-2-(7-methylquinolin-6-yl) acetic acid derivatives for treating AIDS” (Gilead Sciences, Inc., priority 2012, dated 2016) are described below.

By EC50 is commonly meant the concentration at which the effect is half-maximal. Higher therefore signals lower potency in that assay.

Structures are written as SMILES.

For the first test, the system named is HIV-IIIb (MT-4 cells). In words: Test A: Antiviral Assays in MT4 Cells. The conditions noted are these: MT4, 120 h, MT-4 cells infected with HIV-IIIb, 5 days of incubation, CellTiter-Glo readout. The class given is cell-based. The procedure:
The antiviral properties of a compound disclosed herein may be determined using Test A described below.
Test A: Antiviral Assays in MT4 Cells
For the antiviral assay utilizing MT-4 cells, 0.4 μL of […] test concentration of 3-fold serially diluted compound in DMSO was added to 40 μL of cell growth medium (RPMI 1640, 10% FBS, 1% penicillin/Streptomycin, 1% L-Glutamine, 1% HEPES) in each well of 384-well assay plates (10 concentrations) in quadruplicate.
1 mL aliquots of 2×10e6 MT-4 cells are pre-infected for 1 and 3 hrs respectively, @ 37° C. with 25 μL (MT4) or of either cell growth medium (mock-infected) or a fresh 1:250 dilution of an HIV-IIIb concentrated ABI stock (0.004 m.o.i. for MT4 cells). Infected and uninfected cells are diluted in cell growth medium and 35 μL of 2000 (for MT4) cells is added to each well of the assay plates.
Assay plates were then incubated in a 37° C. incubator. After 5 days of incubation, […] 2× concentrated CellTiter-Glo™ Reagent (catalog #G7573, Promega Biosciences, Inc., Madison, Wis.) was added to each well of the assay plate. Cell lysis was carried out by incubating at room temperature for 2-3 min and then chemiluminescence was read using the Envision reader (PerkinElmer).
A general note: ATP-based viability assays read luminescence as a measure of living cells.
With `Cc1cc2nc(OCc3ccccc3OC(F)(F)F)ccc2c(-c2ccc3c4c(ccnc24)CCO3)c1[C@H](OC(C)(C)C)C(=O)O` (atropisomer, axis not shown) [Example 19, (S)-2-tert-Butoxy-2-((R)-5-(2,3-dihydropyrano[4,3,2-de]quinolin-7-yl)-7-methyl-2-(2-(trifluoromethoxy)benzyloxy)quinolin-6-yl)acetic acid], the EC50 is 0.07 µM. `Cc1cc2c(ccc(=O)n2Cc2cc(C(F)(F)F)cc(C(F)(F)F)c2)c(-c2ccc3c4c(ccnc24)CCO3)c1[C@H](OC(C)(C)C)C(=O)O` (atropisomer, axis not shown) [Example 20, (S)-2-((R)-1-(3,5-Bis(trifluoromethyl)benzyl)-5-(2,3-dihydropyrano[4,3,2-de]quinolin-7-yl)-7-methyl-2-oxo-1,2-dihydroquinolin-6-yl)-2-tert-butoxyacetic acid] displayed an EC50 of 0.09 µM. The EC50 values of the last two molecules are within 1.5-fold of each other. In turn, `Cc1cc2c(ccc(=O)n2Cc2ccncc2)c(-c2ccc3c4c(ccnc24)CCO3)c1[C@H](OC(C)(C)C)C(=O)O` (atropisomer, axis not shown) [Example 21, (S)-2-tert-Butoxy-2-((R)-5-(2,3-dihydropyrano[4,3,2-de]quinolin-7-yl)-7-methyl-2-oxo-1-(pyridin-4-ylmethyl)-1,2-dihydroquinolin-6-yl)acetic acid] returned a concentration for a half-maximal effect (EC50) of 0.755 µM. On the same count and under the same terms, next, `Cc1cc2c(ccc(=O)n2Cc2cccnc2)c(-c2ccc3c4c(ccnc24)CCO3)c1[C@H](OC(C)(C)C)C(=O)O` (atropisomer, axis not shown) [Example 22, (S)-2-tert-Butoxy-2-((R)-5-(2,3-dihydropyrano[4,3,2-de]quinolin-7-yl)-7-methyl-2-oxo-1-(pyridin-3-ylmethyl)-1,2-dihydroquinolin-6-yl)acetic acid]: 0.318 µM; `Cc1cc2c(ccc(=O)n2Cc2cnccn2)c(-c2ccc3c4c(ccnc24)CCO3)c1[C@H](OC(C)(C)C)C(=O)O` (atropisomer, axis not shown) [Example 23, (S)-2-tert-Butoxy-2-((R)-5-(2,3-dihydropyrano[4,3,2-de]quinolin-7-yl)-7-methyl-2-oxo-1-(pyrazin-2-ylmethyl)-1,2-dihydroquinolin-6-yl)acetic acid]: 0.383 µM.

`Cc1cc2c(ccc(=O)n2CCCc2ccccc2)c(-c2ccc3c4c(ccnc24)CCO3)c1[C@H](OC(C)(C)C)C(=O)O` (atropisomer, axis not shown) [Example 24, (S)-2-tert-Butoxy-2-((R)-5-(2,3-dihydropyrano[4,3,2-de]quinolin-7-yl)-7-methyl-2-oxo-1-(3-phenylpropyl)-1,2-dihydroquinolin-6-yl)acetic acid] came in with an EC50 of 0.687 µM. Take `Cc1cc2c(ccc(=O)n2Cc2cncnc2)c(-c2ccc3c4c(ccnc24)CCO3)c1[C@H](OC(C)(C)C)C(=O)O` (atropisomer, axis not shown) [Example 25, (S)-2-tert-butoxy-2-((R)-5-(2,3-dihydropyrano[4,3,2-de]quinolin-7-yl)-7-methyl-2-oxo-1-(pyrimidin-5-ylmethyl)-1,2-dihydroquinolin-6-yl)acetic acid]: the midpoint of the response, the EC50, lay at 0.472 µM. `COc1cccc(Cn2c(=O)ccc3c(-c4ccc5c6c(ccnc46)CCO5)c([C@H](OC(C)(C)C)C(=O)O)c(C)cc32)c1` (atropisomer, axis not shown) [Example 26, (S)-2-tert-butoxy-2-((R)-5-(2,3-dihydropyrano[4,3,2-de]quinolin-7-yl)-1-(3-methoxybenzyl)-7-methyl-2-oxo-1,2-dihydroquinolin-6-yl)acetic acid]: the midpoint of the response, the EC50, lay at 0.0993 µM. This EC50 lies about 4.8-fold lower than the previous one.

Molecule `Cc1cc2c(ccc(=O)n2Cc2cc(F)cc(C(F)(F)F)c2)c(-c2ccc3c4c(ccnc24)CCO3)c1[C@H](OC(C)(C)C)C(=O)O` (atropisomer, axis not shown) [Example 27, (S)-2-tert-Butoxy-2-((R)-5-(2,3-dihydropyrano[4,3,2-de]quinolin-7-yl)-1-(3-fluoro-5-(trifluoromethyl)benzyl)-7-methyl-2-oxo-1,2-dihydroquinolin-6-yl)acetic acid] yielded an EC50 of 0.0535 µM. In turn, `Cc1cc2c(ccc(=O)n2Cc2cccc3c2cnn3C)c(-c2ccc3c4c(ccnc24)CCO3)c1[C@H](OC(C)(C)C)C(=O)O` (atropisomer, axis not shown) [Example 28, (S)-2-tert-Butoxy-2-((R)-5-(2,3-dihydropyrano[4,3,2-de]quinolin-7-yl)-7-methyl-1-((1-methyl-1H-indazol-4-yl)methyl)-2-oxo-1,2-dihydroquinolin-6-yl)acetic acid] showed a concentration for a half-maximal effect (EC50) of 0.0458 µM. In the case of `Cc1cc2c(ccc(=O)n2Cc2ccc3c(cnn3C)c2)c(-c2ccc3c4c(ccnc24)CCO3)c1[C@H](OC(C)(C)C)C(=O)O` (atropisomer, axis not shown) [Example 29, (S)-2-tert-Butoxy-2-((R)-5-(2,3-dihydropyrano[4,3,2-de]quinolin-7-yl)-7-methyl-1-((1-methyl-1H-indazol-5-yl)methyl)-2-oxo-1,2-dihydroquinolin-6-yl)acetic acid], a half-maximal effect (EC50) was put at 0.0855 µM.

Consider `Cc1cc2c(ccc(=O)n2Cc2cccc(C(F)F)c2)c(-c2ccc3c4c(ccnc24)CCO3)c1[C@H](OC(C)(C)C)C(=O)O` (atropisomer, axis not shown) [Example 30, (S)-2-tert-Butoxy-2-((R)-1-(3-(difluoromethyl)benzyl)-5-(2,3-dihydropyrano[4,3,2-de]quinolin-7-yl)-7-methyl-2-oxo-1,2-dihydroquinolin-6-yl)acetic acid], for which a half-maximal response (EC50) required 0.0347 µM. Turning to `Cc1cc2c(ccc(=O)n2Cc2cncc(C(F)(F)F)c2)c(-c2ccc3c4c(ccnc24)CCO3)c1[C@H](OC(C)(C)C)C(=O)O` (atropisomer, axis not shown) [Example 31, (S)-2-tert-Butoxy-2-((R)-5-(2,3-dihydropyrano[4,3,2-de]quinolin-7-yl)-7-methyl-2-oxo-1-((5-(trifluoromethyl)pyridin-3-yl)methyl)-1,2-dihydroquinolin-6-yl)acetic acid], the concentration for a half-maximal effect (EC50) was determined as 0.0682 µM. In turn, `Cc1cc2c(ccc(=O)n2Cc2ccc(Oc3ccccc3)cc2)c(-c2ccc3c4c(ccnc24)CCO3)c1[C@H](OC(C)(C)C)C(=O)O` (atropisomer, axis not shown) [Example 32, (S)-2-tert-Butoxy-2-((R)-5-(2,3-dihydropyrano[4,3,2-de]quinolin-7-yl)-7-methyl-2-oxo-1-(4-phenoxybenzyl)-1,2-dihydroquinolin-6-yl)acetic acid] had a concentration giving a half-maximal response (EC50) of 3.06 µM. Against the preceding molecule, the EC50 is about 45-fold higher. In turn, `COc1cc(Cn2c(=O)ccc3c(-c4ccc5c6c(ccnc46)CCO5)c([C@H](OC(C)(C)C)C(=O)O)c(C)cc32)cc(OC)c1` (atropisomer, axis not shown) [Example 33, (S)-2-tert-Butoxy-2-((R)-5-(2,3-dihydropyrano[4,3,2-de]quinolin-7-yl)-1-(3,5-dimethoxybenzyl)-7-methyl-2-oxo-1,2-dihydroquinolin-6-yl)acetic acid] yielded a 50% effective concentration (EC50) of 0.133 µM. As to `Cc1cccc(-n2c(=O)ccc3c(-c4ccc5c6c(ccnc46)CCO5)c([C@H](OC(C)(C)C)C(=O)O)c(C)cc32)c1` (atropisomer, axis not shown) [Example 35, (S)-2-tert-Butoxy-2-((R)-5-(2,3-dihydropyrano[4,3,2-de]quinolin-7-yl)-7-methyl-2-oxo-1-m-tolyl-1,2-dihydroquinolin-6-yl)acetic acid], the EC50 was 1.47 µM. On the same count and under the same terms, for `Cc1cc2c(ccc(=O)n2-c2cccc(NS(C)(=O)=O)c2)c(-c2ccc3c4c(ccnc24)CCO3)c1[C@H](OC(C)(C)C)C(=O)O` (atropisomer, axis not shown) [Example 36, (S)-2-tert-Butoxy-2-((R)-5-(2,3-dihydropyrano[4,3,2-de]quinolin-7-yl)-7-methyl-1-(3-(methylsulfonamido)phenyl)-2-oxo-1,2-dihydroquinolin-6-yl)acetic acid] the value was 37.4 µM. As for `Cc1cc2c(ccc(=O)n2-c2cccc(S(C)(=O)=O)c2)c(-c2ccc3c4c(ccnc24)CCO3)c1[C@H](OC(C)(C)C)C(=O)O` (atropisomer, axis not shown) [Example 37, (S)-2-tert-Butoxy-2-((R)-5-(2,3-dihydropyrano[4,3,2-de]quinolin-7-yl)-7-methyl-1-(3-(methylsulfonyl)phenyl)-2-oxo-1,2-dihydroquinolin-6-yl)acetic acid], a half-maximal effect (EC50) was put at 8.43 µM.

Molecule `Cc1ccc2c(-c3ccc4c5c(ccnc35)CCO4)c([C@H](OC(C)(C)CCc3ccccc3)C(=O)O)c(C)cc2n1` (atropisomer, axis not shown) [Example 38, (2S)-2-((R)-5-(2,3-Dihydropyrano[4,3,2-de]quinolin-7-yl)-2,7-dimethylquinolin-6-yl)-2-(2-methyl-4-phenylbutan-2-yloxy)acetic acid] yielded a half-maximal effective concentration (EC50) of 0.0381 µM.

Still in this test, the particulars now being: MT-4 cells infected with HIV-IIIb, 5 days of incubation, CellTiter-Glo readout.
`CCCC(C)(C)O[C@H](C(=O)O)c1c(C)cc2nc(C)ccc2c1-c1ccc2c3c(ccnc13)CCO2` (atropisomer, axis not shown) [Example 39, (2S)-2-((R)-5-(2,3-Dihydropyrano[4,3,2-de]quinolin-7-yl)-2,7-dimethylquinolin-6-yl)-2-(2-methylpentan-2-yloxy)acetic acid] showed an EC50 of 0.0123 µM. In other words, the double-digit nanomolar range.
